Tests used:
PI3K (p120γ) = molecular target: T1, PI3K (p120γ) (Homo sapiens, UniProt P48736); test: PI3K (p120γ) kinase inhibitory activity (HTRF); assay type: biochemical
T1 construct: Eurofins Pharma Discovery Service (contract assay)
Experimental: This experiment was tested at Eurofins Pharma Discovery Service, Reaction Biology Corp. (RBC)
[…] DNA-PK: Mg/ATP; GST-cMyc-p53; EDTA; Ser15 antibody; ATP: 10 μM; biotinylated phosphatidylinositol-3,4,5-triphosphate; GST label GRP1 PH domain; streptavidin and phycocyanin; europium-labelled monoclonal antibody against GST.
PI3K (p120γ) was incubated in a determination buffer containing phosphatidylinositol 4,5-diphosphate and Mg/ATP (density as required). The reaction was initiated by adding a mixture of Mg/ATP. After incubating at room temperature for 30 min, a termination solution containing EDTA and biotinylated phosphatidylinositol-3,4,5-triphosphate was added to terminate the reaction. Finally, a detection buffer (containing labeled anti-GST monoclonal antibody, PH domain of GRP1 with GST label and streptavidin and phycyanin and […]) was added. Then, the board was read in time-resolved fluorescence mode, and an HTRF signal was measured according to the formula HTRF=10000×(Em665 nm/Em620 nm).

[1] = test system: human small cell lung cancer NCI-H69 xenograft tumor model; test: NCI-H69 xenograft, mono and combination with etoposide, 24-day experiment (Table 8); assay type: in vivo, BALB/c nude mice; settings: for Tumor volume (mm^3) (0th day) / Tumor volume (mm^3) (24th day): average ± SEM, n = 9
Experimental: Experiment example 3: in vivo pharmacodynamics of human small cell lung cancer NCI-H69 cell subcutaneous xenograft tumor BALB/c nude mouse model:
Experimental animals: Female BALB/c nude mice, 6-8 weeks old, weighing 15-22 grams; supplier: Shanghai Linchang Biotechnology Co., LTD. (Linchang, Shanghai)
Human small cell lung cancer NCI-H69 cells (ATCC, item number: HTB-119 and ECACC-95111733) were cultured in vitro in a culture condition of RPMI-1640 medium with 10% fetal bovine serum, 100 U/mL penicillin and 100 μg/mL streptomycin, incubated at 37° C. and 5% CO2. Conventional passage was carried out twice a week. When cell saturation was 80%-90% and the number reaches the requirement, cells were collected, counted and inoculated.
0.2 mL (10×10^6) NCI-H69 cells (with matrix glue, and volume ratio of 1:1) were subcutaneously inoculated into a right back of each mouse, and group administration was initiated when the average tumor volume reaches about 110-120 mm^3.
The tested compound was prepared as a 5 mg/mL clarified solution with 10% DMSO+50% polyethylene glycol 400+40% water as the solvent.
The experimental indicators refers to study whether tumor growth was inhibited, delayed, or cured. Tumor diameter was measured twice a week with a vernier caliper. The calculation formula of the tumor volume was V=0.5a×b^2, and a and b represent the long diameter and short diameter of the tumor, respectively.
The antitumor efficacy of the compound was evaluated by TGI (%) or relative tumor proliferation rate T/C (%). TGI (%) reflects the tumor growth inhibition rate. The calculation of TGI (%): TGI (%)=[1−(average tumor volume at the end of administration of a certain treatment group−average tumor volume at the beginning of administration of the treatment group)/(average tumor volume at the end of treatment in solvent control group−average tumor volume at the beginning of treatment in solvent control group)]×control group.
Relative tumor proliferation rate T/C (%): the calculation formula was as follows: T/C %=[…] TRTV/CRTV group (TRTV: treatment group RTV; CRTV: negative control group RTV). According to results of tumor measurement, Relative Tumor Volume (RTV) was calculated by the formula RTV=Vt/V0, where V0 was the average tumor volume measured in group administration (i.e., d0), and Vt was the average tumor volume measured in a certain single measurement. TRTV and CRTV collect data on the same day.
Statistic analysis includes an average value and a standard error (SEM) of tumor volume at each time point for each group. […] If there was no significant difference in F value, Dunnet (2-sided) method was applied to analysis. All data were analyzed using SPSS 17.0. P<0.05 was considered as having a significant difference.

[2] = 40 mg/kg, PO, QD + etoposide 10 mg/kg, IP
[3] = 40 mg/kg, PO, QD + etoposide 10 mg/kg, IP, 3-day administration, 4-day withdrawal
[4] = 10 mg/kg, BID + etoposide 10 mg/kg, IP
[5] = 20 mg/kg, QD + etoposide 10 mg/kg, IP
[6] = 40 mg/kg, PO, BID + etoposide 10 mg/kg, IP

T1 sequence (P48736 whole entry): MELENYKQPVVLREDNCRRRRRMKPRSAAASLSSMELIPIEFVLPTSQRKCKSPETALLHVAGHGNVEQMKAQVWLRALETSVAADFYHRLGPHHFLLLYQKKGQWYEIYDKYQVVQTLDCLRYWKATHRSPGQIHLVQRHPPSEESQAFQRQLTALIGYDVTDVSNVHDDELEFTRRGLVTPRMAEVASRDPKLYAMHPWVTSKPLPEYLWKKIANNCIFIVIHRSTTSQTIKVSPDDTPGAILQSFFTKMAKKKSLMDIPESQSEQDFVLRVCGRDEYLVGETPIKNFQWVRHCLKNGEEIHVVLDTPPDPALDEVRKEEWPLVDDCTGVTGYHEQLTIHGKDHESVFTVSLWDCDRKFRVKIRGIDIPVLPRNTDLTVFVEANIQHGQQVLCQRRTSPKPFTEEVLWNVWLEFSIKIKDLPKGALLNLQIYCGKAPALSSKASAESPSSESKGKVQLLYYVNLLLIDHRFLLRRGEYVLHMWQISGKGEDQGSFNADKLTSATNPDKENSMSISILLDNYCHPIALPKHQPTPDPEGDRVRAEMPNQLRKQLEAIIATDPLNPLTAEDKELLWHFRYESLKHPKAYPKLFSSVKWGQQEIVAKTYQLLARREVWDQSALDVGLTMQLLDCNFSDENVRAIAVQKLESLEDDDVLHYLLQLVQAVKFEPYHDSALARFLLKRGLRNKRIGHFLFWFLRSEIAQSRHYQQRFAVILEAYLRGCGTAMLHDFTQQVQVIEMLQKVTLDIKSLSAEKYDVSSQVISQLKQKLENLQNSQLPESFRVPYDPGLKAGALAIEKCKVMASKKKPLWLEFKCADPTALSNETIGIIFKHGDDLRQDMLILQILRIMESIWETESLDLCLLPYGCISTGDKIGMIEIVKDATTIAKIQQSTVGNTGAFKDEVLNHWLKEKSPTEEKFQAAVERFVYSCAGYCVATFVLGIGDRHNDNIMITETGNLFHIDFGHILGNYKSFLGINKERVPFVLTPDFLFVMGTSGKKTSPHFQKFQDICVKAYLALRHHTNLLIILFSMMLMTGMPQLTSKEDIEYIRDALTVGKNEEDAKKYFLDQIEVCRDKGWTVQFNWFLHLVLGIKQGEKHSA

Q: For COc1ccc([C@@H](O)c2cc(-c3nncc4cc(N5CCOCC5)ccc34)c(F)cc2Cl)nn1 [Embodiment M3814, reference compound], which IC50 (PI3K (p120γ)) is on record?
A: 1.22 µM

Q: And the “RTV (24th day)” value [1, 2]?
A: 3.47 ± 0.24

Q: What about the “T/C (%) (24th day)” value [1, 2] of the same compound?
A: 43.1%

Q: What about the “TGI (%) (24th day)” value [1, 2] of the same compound?
A: 66.1%

Q: And the “Tumor volume (mm^3) (0th day)” value [1, 3]?
A: 114 ± 8 mm^3

Q: What about the “Tumor volume (mm^3) (24th day)” value [1, 2] of the same compound?
A: 389 ± 28 mm^3

Q: What about the “RTV (24th day)” value ([1]; 40 mg/kg, QD, alone) of the same compound?
A: 6.77 + 0.45

Q: What about the “T/C (%) (24th day)” value ([1]; 40 mg/kg, QD, alone) of the same compound?
A: 84.1%

Q: What about the “TGI (%) (24th day)” value ([1]; 40 mg/kg, QD, alone) of the same compound?
A: 19.8%

Q: What about the “Tumor volume (mm^3) (0th day)” value ([1]; 40 mg/kg, QD, alone) of the same compound?
A: 114 ± 8 mm^3

Q: What about the “Tumor volume (mm^3) (24th day)” value ([1]; 40 mg/kg, QD, alone) of the same compound?
A: 764 ± 59 mm^3

Q: For COc1ccc(C(O)c2cc(-c3cnnc4c(F)c(N5CCOCC5)cc(F)c34)c(F)cc2Cl)nn1 (single isomer, unassigned) [Embodiment 19], which IC50 (PI3K (p120γ)) is on record?
A: 9.15 µM

Q: What about the “RTV (24th day)” value [1, 4] of the same compound?
A: 4.93 ± 0.42

Q: And the “T/C (%) (24th day)” value [1, 4]?
A: 61.2%

Q: And the “TGI (%) (24th day)” value [1, 4]?
A: 46.5%

Q: And the “Tumor volume (mm^3) (0th day)” value ([1]; 10 mg/kg, BID + etoposide 10 mg/kg, IP, 3-day administration, 4-day withdrawal)?
A: 114 ± 9 mm^3

Q: And the “Tumor volume (mm^3) (24th day)” value [1, 4]?
A: 548 ± 44 mm^3

Q: And the “RTV (24th day)” value [1, 5]?
A: 4.08 ± 032

Q: And the “T/C (%) (24th day)” value [1, 5]?
A: 50.6%

Q: What about the “TGI (%) (24th day)” value [1, 5] of the same compound?
A: 56.8%

Q: And the “Tumor volume (mm^3) (0th day)” value ([1]; 20 mg/kg, QD + etoposide 10 mg/kg, IP, 3-day administration, 4-day withdrawal)?
A: 114 ± 7 mm^3

Q: And the “Tumor volume (mm^3) (24th day)” value [1, 5]?
A: 464 ± 41 mm^3

Q: And the “RTV (24th day)” value ([1]; 40 mg/kg, BID, alone)?
A: 6.91 ± 0.18

Q: And the “T/C (%) (24th day)” value ([1]; 40 mg/kg, BID, alone)?
A: 85.8%

Q: And the “TGI (%) (24th day)” value ([1]; 40 mg/kg, BID, alone)?
A: 16.8%

Q: What about the “Tumor volume (mm^3) (0th day)” value ([1]; 40 mg/kg, BID, alone) of the same compound?
A: 114 ± 7 mm^3

Q: And the “Tumor volume (mm^3) (24th day)” value ([1]; 40 mg/kg, BID, alone)?
A: 789 ± 49 mm^3

Q: What about the “RTV (24th day)” value [1, 6] of the same compound?
A: 2.28 ± 0.26

Q: What about the “T/C (%) (24th day)” value [1, 6] of the same compound?
A: 28.4%

Q: What about the “TGI (%) (24th day)” value [1, 6] of the same compound?
A: 81.5%

Q: And the “Tumor volume (mm^3) (0th day)” value ([1]; 40 mg/kg, PO, BID + etoposide 10 mg/kg, IP, 3-day administration, 4-day withdrawal)?
A: 114 ± 10 mm^3

Q: And the “Tumor volume (mm^3) (24th day)” value [1, 6]?
A: 264 ± 37 mm^3

Q: And the “RTV (24th day)” value [1, 2]?
A: 3.11 ± 0.18

Q: What about the “T/C (%) (24th day)” value [1, 2] of the same compound?
A: 38.6%

Q: And the “TGI (%) (24th day)” value [1, 2]?
A: 70.5%

Q: What about the “Tumor volume (mm^3) (0th day)” value [1, 3] of the same compound?
A: 114 ± 7 mm^3

Q: What about the “Tumor volume (mm^3) (24th day)” value [1, 2] of the same compound?
A: 353 ± 33 mm^3

Reference: patent US20220267310A1, “QUINAZOLINE AND CINNOLINE DERIVATIVES AS DNA-PK INHIBITOR” (MEDSHINE DISCOVERY INC., priority 2019, published 2022)
